Laboratory results taken from PMC6668435, “The structural basis of N-acyl-α-amino-β-lactone formation catalyzed by a nonribosomal peptide synthetase” (Nature Communications, 2019).

Assays:
ObiF1 [1] = biological target: T1, ObiF1 (Burkholderia diffusa, UniProt A0A5H1ZR44); experiment: X-ray crystal structure, […] Å; format: binding; settings: holo-ObiF1 co-crystallised with 2 mM ligand; bound in A domain active site (adenylate-forming conformation)
T1 construct: full-length NRPS module C-A-PCP-TE-MLP (last residue Val1390), N-terminal His6, E. coli BL21(DE3), holo form (phosphopantetheinylated with Sfp and CoA); codon-optimised synthetic gene

ObiF1 [2] = biological target: T1, ObiF1; experiment: coupled ObiF1/F2/D/H reconstitution, LCMS product ion counts; format: biochemical; settings: made in situ by ObiH from phenylacetaldehyde and L-Thr; 1 µM holo-ObiF1, 5 mM ATP, 2,3-DHB, GSH or DTT trap, pH 7.5, room temperature
ObiF2 = biological target: T2, ObiF2 (Burkholderia diffusa, UniProt Z9YLO8D081); experiment: coupled ObiF1/F2/D/H reconstitution, LCMS of acyl adenylate and product ions; format: biochemical
T2 sequence (Z9YLO8D081 1-545): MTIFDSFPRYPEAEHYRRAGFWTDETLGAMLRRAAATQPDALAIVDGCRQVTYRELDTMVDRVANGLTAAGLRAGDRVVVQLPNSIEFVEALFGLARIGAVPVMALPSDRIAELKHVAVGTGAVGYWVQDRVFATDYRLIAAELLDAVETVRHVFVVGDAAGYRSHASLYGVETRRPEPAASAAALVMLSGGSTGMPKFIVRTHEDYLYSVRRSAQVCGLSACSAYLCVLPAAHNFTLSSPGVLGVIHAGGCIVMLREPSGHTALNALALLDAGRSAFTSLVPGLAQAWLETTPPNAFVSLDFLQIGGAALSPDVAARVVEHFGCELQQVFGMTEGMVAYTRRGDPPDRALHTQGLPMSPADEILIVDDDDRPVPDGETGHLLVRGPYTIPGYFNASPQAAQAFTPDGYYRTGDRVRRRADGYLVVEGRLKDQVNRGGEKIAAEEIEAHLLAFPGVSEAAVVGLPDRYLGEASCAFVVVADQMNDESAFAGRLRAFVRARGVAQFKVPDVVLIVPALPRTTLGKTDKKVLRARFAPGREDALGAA

ObiH = biological target: T3, ObiH (Burkholderia diffusa, UniProt Z9H1N4SZ53); experiment: LCMS detection of the β-hydroxy-α-amino acid product in coupled assay; format: biochemical
T3 sequence (Z9H1N4SZ53 1-440): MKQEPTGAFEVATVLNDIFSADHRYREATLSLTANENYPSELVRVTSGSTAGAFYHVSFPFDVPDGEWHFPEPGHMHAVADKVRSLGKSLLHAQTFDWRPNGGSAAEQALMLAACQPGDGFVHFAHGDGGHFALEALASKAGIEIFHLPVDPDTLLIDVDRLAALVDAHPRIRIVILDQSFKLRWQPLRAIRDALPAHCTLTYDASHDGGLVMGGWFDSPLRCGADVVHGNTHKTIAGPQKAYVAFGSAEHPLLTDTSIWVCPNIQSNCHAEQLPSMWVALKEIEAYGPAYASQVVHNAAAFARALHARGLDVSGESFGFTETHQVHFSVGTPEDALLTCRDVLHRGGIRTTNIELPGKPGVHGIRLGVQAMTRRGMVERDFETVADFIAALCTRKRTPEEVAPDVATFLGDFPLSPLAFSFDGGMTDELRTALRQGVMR

[3] = biological target: ObiF1-del1304 (ObiF1 C-A-PCP-TE, terminated after Leu1303, without the MLP domain) (Burkholderia diffusa)

## N[C@H](C(=O)O)[C@H](O)Cc1ccc([N+](=O)[O-])cc1 [β-OH-p-NO2-homoPhe, (2S,3R)-β-hydroxy-p-nitro-homophenylalanine]
ObiF1 [1]
  X-ray crystal structure, 3.0 Å: β-OH-p-NO2-homoPhe binds in the A domain active site

## N[C@H](C(=O)O)[C@H](O)Cc1ccccc1 [2a, β-OH-homoPhe]
ObiF1 [2]
  coupled ObiF1/F2/D/H reconstitution, LCMS product ion counts: The best substrates for ObiF1 were β-hydroxy-α-amino acids (2a, 2b) derived from phenylacetaldehydes

## O=C(O)c1ccccc1O [3c, 2-OH benzoic acid]
ObiF2
  coupled ObiF1/F2/D/H reconstitution, LCMS of acyl adenylate and product ions: 2-OH and 3-OH benzoic acids (3c and 3d) were both activated and converted efficiently

## O=CCc1ccccc1 [1a, phenylacetaldehyde]
ObiH
  LCMS detection of the β-hydroxy-α-amino acid product in coupled assay: Starting from phenylacetaldehyde (PAA), the L-Thr transaldolase ObiH generates

## ObiF1 MLP domain, residues 1304-1390, co-expressed in trans from the construct ObiF1 rbs1303/4 (domain or fragment)
[3]
  product ion counts by LCMS in the ObiF1/F2/D/H reconstitution assay, protein sample rbs1303/4 (C-A-PCP-TE co-expressed with the MLP domain), no MLP added (fold lower than WT): 4
